Data from ChEMBL document CHEMBL1201862, “PubChem BioAssay data set” (2004).
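Dose response: 5 concentrations. Exposure: 48 h. Format: 96-well plates. Endpoint: linear interpolation; highest concentration if not reached. GI50 marks 50% less growth.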 Active and inactive are the calls of the source. Rule as the data show it: active = GI50 up to about 1.1 µM and inactive = higher.

Tests used:
Test in all cases: growth of human tumour cells (NCI), 48 h
CCRF-CEM = test system: CCRF-CEM
Hs-578T = test system: Hs-578T
HT-29 = test system: HT-29
SF-295 = test system: SF-295
KM12 = test system: KM12
MDA-MB-435 = test system: MDA-MB-435
SNB-75 = test system: SNB-75
HCT-15 = test system: HCT-15
OVCAR-4 = test system: OVCAR-4
NCI-H23 = test system: NCI-H23
OVCAR-5 = test system: OVCAR-5
A498 = test system: A498
UACC-257 = test system: UACC-257
ACHN = test system: ACHN
OVCAR-3 = test system: OVCAR-3
T47D = test system: T47D
UACC-62 = test system: UACC-62
SK-MEL-5 = test system: SK-MEL-5
U-251 = test system: U-251
NCI-H460 = test system: NCI-H460
NCI-H226 = test system: NCI-H226
TK-10 = test system: TK-10
HCC 2998 = test system: HCC 2998
HCT-116 = test system: HCT-116
M14 = test system: M14
RXF 393 = test system: RXF 393
SF-539 = test system: SF-539
MOLT-4 = test system: MOLT-4
SK-MEL-28 = test system: SK-MEL-28
CAKI-1 = test system: CAKI-1
SN12C = test system: SN12C
K562 = test system: K562
MCF7 = test system: MCF7
MDA-MB-231 = test system: MDA-MB-231
HOP-92 = test system: HOP-92
NCI/ADR-RES = test system: NCI/ADR-RES
SNB-19 = test system: SNB-19
BT-549 = test system: BT-549
MDA-N = test system: MDA-N
SK-OV-3 = test system: SK-OV-3
RPMI-8226 = test system: RPMI-8226
OVCAR-8 = test system: OVCAR-8
HOP-62 = test system: HOP-62
NCI-H522 = test system: NCI-H522
PC-3 = test system: PC-3
DU-145 = test system: DU-145
COLO 205 = test system: COLO 205
IGROV-1 = test system: IGROV-1
SF-268 = test system: SF-268
786-0 = test system: 786-0
HL-60 = test system: HL-60
EKVX = test system: EKVX
A549 = test system: A549
SW-620 = test system: SW-620
UO-31 = test system: UO-31
Malme-3M = test system: Malme-3M
SR = test system: SR
SK-MEL-2 = test system: SK-MEL-2
LOX IMVI = test system: LOX IMVI

In the case of `Sc1nnc(NNc2ccccc2)n1Nc1ccccc1`, the GI50 (CCRF-CEM) is reported as 8.97 µM (inactive), the GI50 (Hs-578T) is reported as > 64.3 µM (inactive) and the GI50 (HT-29) is reported as 4.76 µM (inactive). The GI50 (SF-295) was < 0.01 µM (active), the GI50 (KM12) was 26.1 µM (inactive) and the GI50 (MDA-MB-435) was 0.321 µM (active). The GI50 (SNB-75) was > 44.7 µM (inactive), the GI50 (HCT-15) was 2.1 µM and the GI50 (OVCAR-4) was 0.236 µM (active). The GI50 (NCI-H23) was 28.2 µM (inactive), the GI50 (OVCAR-5) was > 55.2 µM (inactive) and the GI50 (A498) was 39.4 µM (inactive). The GI50 (UACC-257) was 0.283 µM (active), the GI50 (ACHN) was 0.824 µM (active) and the GI50 (OVCAR-3) was > 41.7 µM (inactive). For the same compound, the GI50 (T47D) was 0.528 µM (active), the GI50 (UACC-62) was 0.0427 µM (active) and the GI50 (SK-MEL-5) was 0.488 µM (active). The GI50 (U-251) was 21.1 µM (inactive), the GI50 (NCI-H460) was 0.146 µM (active) and the GI50 (NCI-H226) was 22.6 µM (inactive). For the same compound, the GI50 (TK-10) was > 52.6 µM (inactive), the GI50 (HCC 2998) was 1.78 µM (inactive) and the GI50 (HCT-116) was 2.31 µM (inactive). The GI50 (M14) was 2.02 µM (inactive), the GI50 (RXF 393) was 1.78 µM (inactive) and the GI50 (SF-539) was > 42.5 µM (inactive). The GI50 (MOLT-4) was 0.625 µM (active), the GI50 (SK-MEL-28) was > 100 µM (inactive) and the GI50 (CAKI-1) was > 36.9 µM (inactive). The GI50 (SN12C) was > 95.9 µM (inactive), the GI50 (K562) was 0.0213 µM (active) and the GI50 (MCF7) was 0.508 µM (active). The GI50 (MDA-MB-231) was 44.8 µM (inactive), the GI50 (HOP-92) was 25.3 µM (inactive) and the GI50 (NCI/ADR-RES) was 34.3 µM (inactive). For the same compound, the GI50 (SNB-19) was > 75.9 µM (inactive), the GI50 (BT-549) was 8.69 µM (inactive) and the GI50 (MDA-N) was 2.05 µM (inactive). For the same compound, the GI50 (SK-OV-3) was > 100 µM (inactive), the GI50 (RPMI-8226) was 2.51 µM (inactive) and the GI50 (OVCAR-8) was 21.2 µM (inactive). The GI50 (HOP-62) was 64.3 µM (inactive), the GI50 (NCI-H522) was 42.5 µM (inactive) and the GI50 (PC-3) was 44.8 µM (inactive). The GI50 (DU-145) was > 79.4 µM (inactive), the GI50 (COLO 205) was 0.109 µM (active) and the GI50 (IGROV-1) was 19.8 µM (inactive). For the same compound, the GI50 (SF-268) was > 82.4 µM (inactive), the GI50 (786-0) was > 71 µM (inactive) and the GI50 (HL-60) was 0.04 µM (active). The GI50 (EKVX) was > 87.3 µM (inactive), the GI50 (A549) was 8.97 µM (inactive) and the GI50 (SW-620) was 28.7 µM (inactive).
In the case of `Oc1ccc2cc(Br)ccc2c1-c1c(O)ccc2ccc(Br)cc12`, the GI50 (CCRF-CEM) is reported as 13 µM (inactive), the GI50 (Hs-578T) is reported as 11.9 µM (inactive) and the GI50 (HT-29) is reported as 3.07 µM (inactive). The GI50 (SF-295) was 15.4 µM (inactive), the GI50 (KM12) was 6.84 µM (inactive) and the GI50 (UO-31) was 15.3 µM (inactive). The GI50 (MDA-MB-435) was 16.2 µM (inactive), the GI50 (SNB-75) was 4.73 µM (inactive) and the GI50 (HCT-15) was 14.9 µM. For the same compound, the GI50 (NCI-H23) was 14.4 µM (inactive), the GI50 (OVCAR-5) was 16.9 µM (inactive) and the GI50 (A498) was 17.3 µM (inactive). The GI50 (UACC-257) was 18.5 µM (inactive), the GI50 (ACHN) was 14.8 µM (inactive) and the GI50 (OVCAR-3) was 13.9 µM (inactive). For the same compound, the GI50 (T47D) was 12.7 µM (inactive), the GI50 (UACC-62) was 17.3 µM (inactive) and the GI50 (SK-MEL-5) was 23 µM (inactive). For the same compound, the GI50 (U-251) was 14.1 µM (inactive), the GI50 (Malme-3M) was 13.4 µM (inactive) and the GI50 (SR) was 14.3 µM (inactive). For the same compound, the GI50 (NCI-H460) was 4.12 µM (inactive), the GI50 (NCI-H226) was 13.2 µM (inactive) and the GI50 (TK-10) was 16.7 µM (inactive). For the same compound, the GI50 (HCC 2998) was 6.52 µM (inactive), the GI50 (HCT-116) was 14.4 µM (inactive) and the GI50 (M14) was 17.8 µM (inactive). For the same compound, the GI50 (SF-539) was 18.5 µM (inactive), the GI50 (MOLT-4) was 4.85 µM (inactive) and the GI50 (SK-MEL-28) was 18.7 µM (inactive). For the same compound, the GI50 (CAKI-1) was 18.8 µM (inactive), the GI50 (SN12C) was 12 µM (inactive) and the GI50 (K562) was 18.5 µM (inactive). For the same compound, the GI50 (MCF7) was 13 µM (inactive), the GI50 (MDA-MB-231) was 10 µM (inactive) and the GI50 (NCI/ADR-RES) was 13.6 µM (inactive). For the same compound, the GI50 (SK-MEL-2) was 16 µM (inactive), the GI50 (SNB-19) was 15.4 µM (inactive) and the GI50 (BT-549) was 14.7 µM (inactive). For the same compound, the GI50 (MDA-N) was 12.2 µM (inactive), the GI50 (SK-OV-3) was 12.2 µM (inactive) and the GI50 (OVCAR-8) was 14.4 µM (inactive). The GI50 (HOP-62) was 14.7 µM (inactive), the GI50 (NCI-H522) was 15.2 µM (inactive) and the GI50 (PC-3) was 12.6 µM (inactive). For the same compound, the GI50 (DU-145) was 15.8 µM (inactive), the GI50 (COLO 205) was 13.6 µM (inactive) and the GI50 (IGROV-1) was 8.3 µM (inactive). For the same compound, the GI50 (SF-268) was 20 µM (inactive), the GI50 (786-0) was 13.8 µM (inactive) and the GI50 (HL-60) was 5.42 µM (inactive). For the same compound, the GI50 (A549) was 15.2 µM (inactive) and the GI50 (SW-620) was 11.7 µM (inactive).
`CC1(O)CC23CC1CCC2(C)C12CCCC(C)(C(=O)O1)C2CC3O` (stereo unspecified) was tested, and the GI50 (CCRF-CEM) was > 100 µM (inactive), the GI50 (Hs-578T) was > 100 µM (inactive) and the GI50 (HT-29) was > 100 µM (inactive). For the same compound, the GI50 (SF-295) was > 100 µM (inactive), the GI50 (KM12) was > 100 µM (inactive) and the GI50 (UO-31) was > 100 µM (inactive). For the same compound, the GI50 (MDA-MB-435) was > 100 µM (inactive), the GI50 (SNB-75) was > 100 µM (inactive) and the GI50 (HCT-15) was over 100 µM. For the same compound, the GI50 (OVCAR-4) was > 100 µM (inactive), the GI50 (NCI-H23) was > 100 µM (inactive) and the GI50 (OVCAR-5) was > 100 µM (inactive). For the same compound, the GI50 (A498) was > 100 µM (inactive), the GI50 (UACC-257) was > 100 µM (inactive) and the GI50 (ACHN) was > 100 µM (inactive). For the same compound, the GI50 (T47D) was > 100 µM (inactive), the GI50 (UACC-62) was > 100 µM (inactive) and the GI50 (SK-MEL-5) was > 100 µM (inactive). For the same compound, the GI50 (U-251) was > 100 µM (inactive), the GI50 (Malme-3M) was > 100 µM (inactive) and the GI50 (SR) was > 100 µM (inactive). The GI50 (NCI-H460) was > 100 µM (inactive), the GI50 (NCI-H226) was > 100 µM (inactive) and the GI50 (TK-10) was > 100 µM (inactive). The GI50 (HCC 2998) was > 100 µM (inactive), the GI50 (HCT-116) was > 100 µM (inactive) and the GI50 (M14) was > 100 µM (inactive). The GI50 (SF-539) was > 100 µM (inactive), the GI50 (SK-MEL-28) was > 100 µM (inactive) and the GI50 (CAKI-1) was > 100 µM (inactive). The GI50 (SN12C) was > 100 µM (inactive), the GI50 (K562) was > 100 µM (inactive) and the GI50 (MCF7) was > 100 µM (inactive). For the same compound, the GI50 (MDA-MB-231) was > 100 µM (inactive), the GI50 (LOX IMVI) was > 100 µM (inactive) and the GI50 (HOP-92) was > 100 µM (inactive). For the same compound, the GI50 (NCI/ADR-RES) was > 100 µM (inactive), the GI50 (SK-MEL-2) was > 100 µM (inactive) and the GI50 (SNB-19) was > 100 µM (inactive). For the same compound, the GI50 (BT-549) was > 100 µM (inactive), the GI50 (MDA-N) was > 100 µM (inactive) and the GI50 (SK-OV-3) was > 100 µM (inactive). For the same compound, the GI50 (OVCAR-8) was > 100 µM (inactive), the GI50 (NCI-H522) was > 100 µM (inactive) and the GI50 (PC-3) was > 100 µM (inactive). For the same compound, the GI50 (DU-145) was > 100 µM (inactive), the GI50 (COLO 205) was > 100 µM (inactive) and the GI50 (IGROV-1) was > 100 µM (inactive). The GI50 (SF-268) was > 100 µM (inactive), the GI50 (786-0) was > 100 µM (inactive) and the GI50 (HL-60) was > 10 µM (inactive). For the same compound, the GI50 (EKVX) was > 100 µM (inactive), the GI50 (A549) was > 100 µM (inactive) and the GI50 (SW-620) was > 100 µM (inactive).
